Values joined by “and” are separate entries in the source; they are usually repeats but may differ in a detail not shown here. Equal entries are not always repeated.

Data set [1] is described as follows: Liver microsome intrinsic clearance, mouse. In kind it is in vitro ADME. The conditions noted are these: mouse liver microsomes, predicted intrinsic clearance, read-out: LMS CLINT mouse.
Data set [2] in a line: ChromatoLogD. The class given is physicochemical.
The nature of data set [3]: Liver microsome intrinsic clearance, human. In kind it is in vitro ADME. The conditions noted are these: for CLint scaled at 1 µM: pH 7.4, human liver microsomes, predicted intrinsic clearance, read-out: LMS CLINT human; for Predicted CLhep human: from microsomal CLint. A digest of the protocol: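 Incubation in 100 mM potassium phosphate pH 7.4 with 3 mM MgCl2 at 37 °C, started with 1 mM NADPH after 5 min preincubation; sampled 0–45 min, quenched in acetonitrile, LC/MS/MS. Half-life from ln % remaining vs time; CLint scaled with 20 (human) or 45 (rat) factors, CLhep using Qh 21 (human) or 70 (rat) mL/min/kg.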

Data set [4] in a line: IV/PO pharmacokinetic study, NHP (cyno). In kind it is in vivo. The conditions noted are these: for clearance / Vd / half-life / Cmax: cynomolgus monkey, plasma; for clearance / Vd / half-life: iv 1 mg/kg; for clearance: read-out: CLp; for Vd: read-out: Vss; for half-life: read-out: elimination t1/2 (converted); for Cmax / F (%) po: po 1 mg/kg.
In data set [5] the target is Nav1.5 (Homo sapiens, UniProt Q14524). The data set can be described thus: MPC ion channel panel, Nav1.5. In kind it is cell-based.
For data set [6], the target named is Kv4.3 (Homo sapiens, UniProt Q9UK17). The data set can be described thus: MPC ion channel panel, Kv4.3. The class given is cell-based.
Chain of Kv4.3 (Q9UK17 whole entry): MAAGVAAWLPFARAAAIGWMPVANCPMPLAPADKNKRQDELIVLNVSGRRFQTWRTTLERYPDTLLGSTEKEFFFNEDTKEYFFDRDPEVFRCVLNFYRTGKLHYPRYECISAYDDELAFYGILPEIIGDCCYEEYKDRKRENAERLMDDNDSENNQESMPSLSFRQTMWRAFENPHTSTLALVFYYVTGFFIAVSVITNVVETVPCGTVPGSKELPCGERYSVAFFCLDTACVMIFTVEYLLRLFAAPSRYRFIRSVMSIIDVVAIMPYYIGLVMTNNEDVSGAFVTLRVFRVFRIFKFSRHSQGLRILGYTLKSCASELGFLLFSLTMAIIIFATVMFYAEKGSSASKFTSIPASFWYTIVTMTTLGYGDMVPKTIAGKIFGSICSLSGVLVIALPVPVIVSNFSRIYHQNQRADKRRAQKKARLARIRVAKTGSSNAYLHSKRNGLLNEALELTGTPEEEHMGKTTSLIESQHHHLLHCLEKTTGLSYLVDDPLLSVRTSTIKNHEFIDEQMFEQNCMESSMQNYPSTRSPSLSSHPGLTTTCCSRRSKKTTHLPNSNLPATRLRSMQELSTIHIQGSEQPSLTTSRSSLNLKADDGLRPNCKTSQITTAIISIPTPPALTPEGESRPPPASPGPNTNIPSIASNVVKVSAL
Data set [7] in a line: Brain homogenate binding, mouse. In kind it is in vitro ADME. As to conditions: bound. The protocol:
concentration), which was aliquoted in triplicate to the ‘bottom half’ of the prepared HTD plate wells. The HTD plate was sealed and incubated for 6 hours at 37 °C. Following incubation, each well (both top and bottom halves) were transferred (20 µL) to the corresponding wells of a 96-shallow-well (V-bottom) plate. The daughter plates were then matrix-matched (DPBS side wells received equal volume of plasma, and plasma side wells received equal volume of DPBS), and extraction solution (120 µL; acetonitrile containing 50 nM carbamazepine as IS) was added to all wells of both daughter plates to precipitate protein and extract test article. […]
The unbound fraction (f u) was calculated following the equation below, and mean values for each species were calculated from 3 replicates.
A similar approach was used to determine the degree of brain homogenate binding, which employed the same methodology and procedure with the following modifications: 1) a final compound concentration of 1 μM was used, 2) naïve rat brains were homogenized in DPBS (1:3 composition of brain: DPBS, w/w) using a Mini-Bead Beater™ machine in order to obtain brain homogenate, which was then treated in the same manner as the plasma samples in the previously described plasma protein binding assay. Fraction unbound for both plasma and brain samples was determined using Equation 4. […]

Data set [8] concerns the target Cav1.2 (Homo sapiens, UniProt Q13936). The data set can be described thus: MPC ion channel panel, Cav1.2. The class given is cell-based.
Data set [9] concerns the target KCNQ1/E1 (Homo sapiens, UniProt P51787). The data set can be described thus: MPC ion channel panel, KCNQ1/E1. In kind it is cell-based.
Data set [10] has as its target A3 (Homo sapiens, UniProt P0DMS8). The data set can be described thus: Functional assay, adenosine A3. The class given is biochemical.
Data set [11] deals with MK-801 challenged rat. The data set can be described thus: MK-801 challenge novel object recognition (NOR), rat. The class given is in vivo. The conditions noted are these: for Minimum effective dose (MED), MK-801 challenge NOR: PO, MK-801 0.2 mg/kg IP; for reversal of the MK-801 deficit in NOR: oral, 10 at 1, 3 mg/kg, 11 at 0.3, 1 mg/kg.

Chain of Cav1.2 (Q13936 whole entry): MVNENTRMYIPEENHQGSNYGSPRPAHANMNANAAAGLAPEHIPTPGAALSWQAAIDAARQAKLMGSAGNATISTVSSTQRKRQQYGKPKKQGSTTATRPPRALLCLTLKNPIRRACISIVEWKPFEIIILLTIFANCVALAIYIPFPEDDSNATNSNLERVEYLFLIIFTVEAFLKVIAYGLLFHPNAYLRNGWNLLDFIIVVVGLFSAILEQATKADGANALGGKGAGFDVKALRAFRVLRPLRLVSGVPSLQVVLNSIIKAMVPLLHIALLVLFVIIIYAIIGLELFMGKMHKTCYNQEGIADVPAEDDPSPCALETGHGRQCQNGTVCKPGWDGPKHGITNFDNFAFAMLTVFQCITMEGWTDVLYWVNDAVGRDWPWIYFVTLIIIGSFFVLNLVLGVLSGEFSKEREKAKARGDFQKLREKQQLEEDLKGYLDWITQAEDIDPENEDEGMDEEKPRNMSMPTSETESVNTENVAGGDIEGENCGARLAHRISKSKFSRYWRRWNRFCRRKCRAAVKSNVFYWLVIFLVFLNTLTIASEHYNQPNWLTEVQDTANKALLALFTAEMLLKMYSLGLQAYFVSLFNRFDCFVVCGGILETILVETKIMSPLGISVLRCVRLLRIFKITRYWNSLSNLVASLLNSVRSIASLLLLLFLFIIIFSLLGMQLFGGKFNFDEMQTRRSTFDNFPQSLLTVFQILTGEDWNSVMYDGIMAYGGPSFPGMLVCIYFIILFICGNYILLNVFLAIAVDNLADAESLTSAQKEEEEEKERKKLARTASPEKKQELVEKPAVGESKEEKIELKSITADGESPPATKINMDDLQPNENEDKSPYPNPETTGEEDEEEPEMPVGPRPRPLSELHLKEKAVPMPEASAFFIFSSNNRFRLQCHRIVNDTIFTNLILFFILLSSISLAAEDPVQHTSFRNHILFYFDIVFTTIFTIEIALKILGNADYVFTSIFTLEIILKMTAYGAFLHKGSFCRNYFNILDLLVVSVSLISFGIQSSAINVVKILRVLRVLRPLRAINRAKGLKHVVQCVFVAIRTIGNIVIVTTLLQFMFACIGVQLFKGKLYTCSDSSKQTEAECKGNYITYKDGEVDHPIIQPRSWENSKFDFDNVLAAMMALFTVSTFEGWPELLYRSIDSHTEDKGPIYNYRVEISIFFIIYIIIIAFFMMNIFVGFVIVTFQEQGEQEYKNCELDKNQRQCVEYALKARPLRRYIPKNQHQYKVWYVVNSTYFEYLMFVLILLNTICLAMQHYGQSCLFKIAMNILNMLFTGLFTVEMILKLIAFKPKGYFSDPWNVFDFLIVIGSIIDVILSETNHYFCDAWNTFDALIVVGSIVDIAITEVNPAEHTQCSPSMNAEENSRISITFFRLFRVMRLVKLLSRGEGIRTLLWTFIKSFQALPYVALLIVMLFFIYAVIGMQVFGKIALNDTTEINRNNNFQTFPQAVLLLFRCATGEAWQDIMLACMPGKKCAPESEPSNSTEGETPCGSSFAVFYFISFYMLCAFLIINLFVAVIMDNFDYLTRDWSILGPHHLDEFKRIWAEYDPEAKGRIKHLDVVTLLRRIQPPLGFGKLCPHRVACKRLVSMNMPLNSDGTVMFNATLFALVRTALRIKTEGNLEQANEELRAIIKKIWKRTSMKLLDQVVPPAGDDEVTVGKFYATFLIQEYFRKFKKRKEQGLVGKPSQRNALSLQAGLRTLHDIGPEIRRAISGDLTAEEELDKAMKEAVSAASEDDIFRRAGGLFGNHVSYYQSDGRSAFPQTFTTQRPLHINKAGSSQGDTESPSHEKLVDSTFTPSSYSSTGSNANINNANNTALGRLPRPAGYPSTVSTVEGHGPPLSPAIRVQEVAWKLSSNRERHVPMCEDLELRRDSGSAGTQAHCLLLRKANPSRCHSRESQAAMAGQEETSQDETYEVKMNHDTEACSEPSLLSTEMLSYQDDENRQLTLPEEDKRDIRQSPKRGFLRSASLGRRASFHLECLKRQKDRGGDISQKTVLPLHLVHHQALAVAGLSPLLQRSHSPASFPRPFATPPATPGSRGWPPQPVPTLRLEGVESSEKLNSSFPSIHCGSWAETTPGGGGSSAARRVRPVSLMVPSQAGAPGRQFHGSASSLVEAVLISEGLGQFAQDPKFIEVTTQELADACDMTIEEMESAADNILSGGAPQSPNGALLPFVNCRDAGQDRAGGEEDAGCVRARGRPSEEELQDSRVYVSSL
Chain of Cav1.2 (Q08289 whole entry partner): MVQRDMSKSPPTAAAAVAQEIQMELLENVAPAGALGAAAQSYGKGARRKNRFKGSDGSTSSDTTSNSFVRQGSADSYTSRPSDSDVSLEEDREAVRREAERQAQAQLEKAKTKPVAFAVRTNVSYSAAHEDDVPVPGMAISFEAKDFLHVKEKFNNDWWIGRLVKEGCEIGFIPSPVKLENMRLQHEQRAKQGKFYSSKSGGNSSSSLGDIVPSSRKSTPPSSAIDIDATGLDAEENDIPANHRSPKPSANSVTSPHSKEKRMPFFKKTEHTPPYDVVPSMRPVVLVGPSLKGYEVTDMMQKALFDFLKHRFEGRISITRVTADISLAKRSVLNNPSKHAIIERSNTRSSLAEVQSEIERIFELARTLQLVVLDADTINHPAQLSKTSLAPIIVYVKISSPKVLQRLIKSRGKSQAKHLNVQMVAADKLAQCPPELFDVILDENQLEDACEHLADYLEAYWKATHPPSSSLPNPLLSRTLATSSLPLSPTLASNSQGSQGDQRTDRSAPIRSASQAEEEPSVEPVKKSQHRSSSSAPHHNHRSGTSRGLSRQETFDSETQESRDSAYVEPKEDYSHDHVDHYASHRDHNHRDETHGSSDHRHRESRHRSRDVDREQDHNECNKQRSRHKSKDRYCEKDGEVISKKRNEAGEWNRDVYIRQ
Chain of Cav1.2 (P54289 25-956 partner limits assumed): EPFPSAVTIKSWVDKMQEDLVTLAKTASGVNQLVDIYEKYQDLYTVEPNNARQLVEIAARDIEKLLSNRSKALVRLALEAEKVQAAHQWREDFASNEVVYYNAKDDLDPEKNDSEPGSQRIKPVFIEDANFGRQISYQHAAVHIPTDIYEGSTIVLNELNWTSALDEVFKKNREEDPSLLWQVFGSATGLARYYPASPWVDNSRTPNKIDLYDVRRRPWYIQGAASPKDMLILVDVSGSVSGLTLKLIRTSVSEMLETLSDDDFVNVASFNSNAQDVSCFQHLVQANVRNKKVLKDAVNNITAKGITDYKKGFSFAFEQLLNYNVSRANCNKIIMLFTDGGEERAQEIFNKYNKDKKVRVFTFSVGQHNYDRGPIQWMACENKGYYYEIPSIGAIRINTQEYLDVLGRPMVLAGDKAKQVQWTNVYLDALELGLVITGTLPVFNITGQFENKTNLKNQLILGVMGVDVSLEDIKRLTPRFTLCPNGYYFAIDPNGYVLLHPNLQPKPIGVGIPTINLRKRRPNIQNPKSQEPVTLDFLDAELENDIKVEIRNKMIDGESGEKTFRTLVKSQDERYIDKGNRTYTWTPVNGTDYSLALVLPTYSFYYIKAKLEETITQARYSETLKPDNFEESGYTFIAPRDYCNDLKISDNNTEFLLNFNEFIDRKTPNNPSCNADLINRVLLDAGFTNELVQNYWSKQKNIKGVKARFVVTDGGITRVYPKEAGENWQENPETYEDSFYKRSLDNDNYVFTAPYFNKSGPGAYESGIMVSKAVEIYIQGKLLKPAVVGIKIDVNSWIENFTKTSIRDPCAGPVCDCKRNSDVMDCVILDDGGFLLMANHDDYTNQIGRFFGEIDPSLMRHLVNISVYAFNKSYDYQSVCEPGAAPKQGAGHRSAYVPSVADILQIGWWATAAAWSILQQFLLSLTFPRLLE
Chain of Cav1.2 (P54289 957-1103 partner limits assumed): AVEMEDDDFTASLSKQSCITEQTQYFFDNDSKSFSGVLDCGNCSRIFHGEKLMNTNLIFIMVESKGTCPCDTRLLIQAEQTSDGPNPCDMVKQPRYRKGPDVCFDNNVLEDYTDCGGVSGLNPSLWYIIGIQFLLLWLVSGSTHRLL
Chain of A3 (P0DMS8 whole entry): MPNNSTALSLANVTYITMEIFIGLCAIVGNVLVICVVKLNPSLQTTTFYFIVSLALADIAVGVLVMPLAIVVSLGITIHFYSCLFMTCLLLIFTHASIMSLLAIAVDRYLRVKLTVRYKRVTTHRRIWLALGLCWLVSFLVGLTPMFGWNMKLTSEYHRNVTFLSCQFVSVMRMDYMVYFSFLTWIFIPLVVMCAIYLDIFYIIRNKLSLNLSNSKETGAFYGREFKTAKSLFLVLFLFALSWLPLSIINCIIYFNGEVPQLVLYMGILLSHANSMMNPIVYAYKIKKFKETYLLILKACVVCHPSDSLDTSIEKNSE

As to `Cc1cc(C#Cc2ccccc2)cnc1NC(=O)c1cc(OC[C@@H]2COCCO2)ccc1Cl` [Compound 7, (S)-5-((1,4-Dioxan-2-yl)methoxy)-2-chloro-N-(3-methyl-5-(phenylethynyl)pyridin-2-yl)benzamide], the CLint scaled at 1 µM in data set [1] (pH 7.4) is 88 mL/min/kg; in data set [3], 57 mL/min/kg. Besides, the chromatographic logD in [2] was 4.14.
Consider `CC(=O)N1CCC(n2ncc(Cl)c2C(=O)Nc2ncc(C#Cc3ccccc3)cc2C)CC1` [Compound 10, 1-(1-Acetylpiperidin-4-yl)-4-chloro-N-(3-methyl-5-(phenylethynyl)pyridin-2-yl)-1H-pyrazole-5-carboxamide], for which, in data set [4], the clearance turned out to be 13.3 mL/min/kg, the Vd was 2.1 L/kg, the half-life is 3.3 h and the Cmax was 152 ng/mL. Moreover, the “F (%) po” value in [4] stood at 34%. In addition, the inhibition at 10 µM in data set [5] is at most 50%. The inhibition at 10 µM in data set [6] was at most 50%. Also, in [1], the CLint scaled is 8 mL/min/kg. Moreover, the BHB mouse in [7] was 99.5% and 99.5, 99.5%. The compound further displayed a chromatographic logD in data set [2] of 3.8. Further, in data set [3], the “Predicted CLhep human” value is reported as 4.9 mL/min/kg and the CLint scaled at 1 µM was 6 mL/min/kg. Moreover, the inhibition at 10 µM in data set [8] was at most 50%. In data set [9], this compound yielded an inhibition at 10 µM of at most 50%. This compound gave a half-maximal inhibitory concentration (IC50) in data set [10] of 5.37 µM. In data set [11], the “Minimum effective dose (MED), MK-801 challenge NOR” value is recorded as 1 mg/kg and the “reversal of the MK-801 deficit in NOR” value was “significantly reversed the MK-801 deficit”.
Consider `CC(=O)N1CC[C@@H](n2ncc(Cl)c2C(=O)Nc2ncc(C#Cc3ccc(F)cc3)cc2C)[C@H](F)C1` [Compound 11, 1-((3R,4R)-1-Acetyl-3-fluoropiperidin-4-yl)-4-chloro-N-(5-((4-fluorophenyl)ethynyl)-3-methylpyridin-2-yl)-1H-pyrazole-5-carboxamide], for which, in data set [4], the clearance was 6.5 mL/min/kg, the Vd turned out to be 4.4 L/kg, the half-life was 9.3 h and the Cmax came to 260 ng/mL. Besides, the “F (%) po” value in data set [4] was found to be 89%. In data set [5], this compound gave an inhibition at 10 µM of at most 50%. The same compound registered an inhibition at 10 µM in data set [6] of at most 50%. In addition, the CLint scaled in data set [1] was 134 mL/min/kg. Also, in [7], the BHB mouse stood at 99.5%. In [2], the chromatographic logD is 3.9. For the same compound, in [3], the “Predicted CLhep human” value is given as 7.0 mL/min/kg and the CLint scaled at 1 µM is 10 mL/min/kg. In data set [8], the inhibition at 10 µM was at most 50%. Moreover, the inhibition at 10 µM in data set [9] was 60%. The IC50 in data set [10] was found to be 19.8 µM. For the same compound, in data set [11], the “Minimum effective dose (MED), MK-801 challenge NOR” value was found to be 0.3 mg/kg and the “reversal of the MK-801 deficit in NOR” value is “significantly reversed the MK-801 deficit”.
Consider `Cc1cc(C#Cc2ccccc2)cnc1NC(=O)c1c(Cl)cnn1[C@H]1CCOC1` [Compound 15a, (S)-4-Chloro-N-(3-methyl-5-(phenylethynyl)pyridin-2-yl)-1-(tetrahydrofuran-3-yl)-1H-pyrazole-5-carboxamide], for which the CLint scaled at 1 µM in data set [3] was 4 mL/min/kg.

These data come from paper PMC12621189, “Optimization of Selective and CNS Penetrant Alkyne-Based TREK Inhibitors: The Discovery and Characterization of ONO-9517601 (VU6022856) and ONO-7927846 (VU6024391)” (Journal of Medicinal Chemistry, 2025).
